ChEMBL document CHEMBL3286370, “Synthesis of triterpenoid triazine derivatives from allobetulone and betulonic acid with biological activities” (Bioorg Med Chem, 2014)

Key:
[1] = test system: Human betaherpesvirus 5; assay: Antiviral activity against Human cytomegalovirus Davis assessed as reduction in viral plaque formation; assay type: functional, organism-based; conditions: Human betaherpesvirus 5, Davis
[2] = Cytotoxicity against HEL cells assessed as growth inhibition; assay type: cell-based; conditions: human
[3] = test system: CCRF-CEM; assay: Cytostatic activity against human CEM cells after 72 hrs by Coulter counting analysis; assay type: functional, cell-based
[4] = test system: L1210; assay: Cytostatic activity against mouse L1210 cells after 48 hrs by Coulter counting analysis; assay type: functional, cell-based; conditions: L1210, 48 h
[5] = test system: HeLa; assay: Cytostatic activity against human HeLa cells after 72 hrs by Coulter counting analysis; assay type: functional, cell-based
[6] = test system: Human betaherpesvirus 5; assay: Antiviral activity against Human cytomegalovirus AD169 assessed as reduction in viral plaque formation; assay type: functional, organism-based; conditions: Human betaherpesvirus 5, AD169
[7] = Cytotoxicity against HEL cells assessed as alteration in cellular morphology; assay type: cell-based; conditions: human
[8] = test system: Human alphaherpesvirus 1; assay: Antiviral activity against thymidine kinase-deficient ACV-resistant Herpes simplex virus type 1 KOS assessed as reduction in virus-induced cytopathogenicity by cell-based assay; assay type: functional, organism-based; conditions: Human alphaherpesvirus 1, KOS
[9] = test system: Human alphaherpesvirus 1; assay: Antiviral activity against Herpes simplex virus type 1 KOS assessed as reduction in virus-induced cytopathogenicity by cell-based assay; assay type: functional, organism-based; conditions: Human alphaherpesvirus 1, KOS
[10] = test system: Human alphaherpesvirus 3; assay: Antiviral activity against Varicella zoster virus Oka assessed as reduction in virus-induced cytopathogenicity by cell-based assay; assay type: functional, organism-based; conditions: Human alphaherpesvirus 3, strain Oka vaccine
[11] = test system: Human alphaherpesvirus 3; assay: Antiviral activity against thymidine kinase-deficient Varicella zoster virus 07-1 assessed as reduction in virus-induced cytopathogenicity by cell-based assay; assay type: functional, organism-based; conditions: Human alphaherpesvirus 3, 07-1
[12] = test system: Human alphaherpesvirus 2; assay: Antiviral activity against Herpes simplex virus type 2 G assessed as reduction in virus-induced cytopathogenicity by cell-based assay; assay type: functional, organism-based; conditions: Human alphaherpesvirus 2, strain G

`C=C(C)[C@@H]1CC[C@]2(C(=O)O)CC[C@]3(C)[C@H](CC[C@@H]4[C@@]5(C)Cc6cc7c(nc6C(C)(C)[C@@H]5CC[C@]43C)SCC7)[C@@H]12` gave an EC50 [1] of 11 µM, a CC50 [2] of 74 µM and an IC50 [3] of 3.8 µM. For the same compound, the IC50 [4] was 7.8 µM, the IC50 [5] was 10 µM and the EC50 [6] was 8.6 µM.
Compound `C=C(C)[C@@H]1CC[C@]2(C(=O)O)CC[C@]3(C)[C@H](CC[C@@H]4[C@@]5(C)Cc6n[nH]c(=S)nc6C(C)(C)[C@@H]5CC[C@]43C)[C@@H]12` has an EC50 [1] of at least 20 µM, a CC50 [2] of over 100 µM and an MCC [7] of over 100 µM. For the same compound, the IC50 [3] was 204 µM, the IC50 [4] was 196 µM and the IC50 [5] was 160 µM. It also gave an EC50 [6] of at least 20 µM.
In the case of `C#CCCSc1nnc2c(n1)C(C)(C)[C@@H]1CC[C@]3(C)[C@H](CC[C@@H]4[C@H]5[C@H](C(=C)C)CC[C@]5(C(=O)O)CC[C@]43C)[C@@]1(C)C2`, the EC50 [1] is reported as at least 4 µM, the CC50 [2] is reported as 55 µM and the MCC [7] is reported as 20 µM. For the same compound, the IC50 [3] was 1.2 µM, the IC50 [4] was 4.9 µM and the IC50 [5] was 9.1 µM. The EC50 [6] was over 4 µM.
In the case of `C=C(C)[C@@H]1CC[C@]2(C(=O)O)CC[C@]3(C)[C@H](CC[C@@H]4[C@@]5(C)Cc6nnc(SC)nc6C(C)(C)[C@@H]5CC[C@]43C)[C@@H]12`, the EC50 [1] is reported as 2 µM, the CC50 [2] is reported as 45 µM and the MCC [7] is reported as 20 µM. For the same compound, the IC50 [3] was 2.6 µM, the IC50 [4] was 7.3 µM and the IC50 [5] was 7.3 µM. It also gave an EC50 [6] of 1.8 µM.
Work on `C=C(C)[C@@H]1CC[C@]2(C(=O)O)CC[C@]3(C)[C@H](CC[C@@H]4[C@@]5(C)CC(=O)C(=O)C(C)(C)[C@@H]5CC[C@]43C)[C@@H]12` yielded an EC50 [8] of 10 µM, an EC50 [9] of 10 µM and an EC50 [1] of 2.9 µM. For the same compound, the EC50 [10] was 10 µM, the EC50 [11] was 10 µM and the CC50 [2] was 51 µM. It also gave an MCC [7] of 20 µM, an IC50 [3] of 13 µM and an IC50 [4] of 12 µM. The EC50 [12] was 10 µM, the IC50 [5] was 19 µM and the EC50 [6] was 3 µM.
